Results reported in ChEMBL document CHEMBL4715811, “Antagonists of Orexin Receptors as Potential Treatment of Sleep Disorders, Obesity, Eating Disorders, and Other Neurological and Psychiatric Disorders” (ACS Med Chem Lett, 2016).

Assays:
Orexin receptor type 2 = biological target: T1, Orexin receptor type 2 (Homo sapiens, UniProt O43614); experiment: Antagonist activity at human OX2R expressed in CHO cells assessed as inhibition of orexin A-induced intracellular Ca2+ release by FLIPR assay; assay type: functional, cell-based
T1 sequence (O43614 whole entry): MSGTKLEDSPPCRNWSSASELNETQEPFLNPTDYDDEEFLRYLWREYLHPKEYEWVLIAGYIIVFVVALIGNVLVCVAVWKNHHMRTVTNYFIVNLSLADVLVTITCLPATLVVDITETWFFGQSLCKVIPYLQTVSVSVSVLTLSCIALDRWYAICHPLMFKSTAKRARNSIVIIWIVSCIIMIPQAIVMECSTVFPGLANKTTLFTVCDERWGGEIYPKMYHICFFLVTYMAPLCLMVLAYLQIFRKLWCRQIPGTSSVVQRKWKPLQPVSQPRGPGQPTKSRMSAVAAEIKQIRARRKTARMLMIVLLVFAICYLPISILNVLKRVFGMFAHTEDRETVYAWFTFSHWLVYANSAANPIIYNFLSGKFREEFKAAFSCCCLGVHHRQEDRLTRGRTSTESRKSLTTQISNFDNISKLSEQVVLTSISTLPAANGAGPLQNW

[1] = biological target: T2, Orexin/Hypocretin receptor type 1 (Homo sapiens, UniProt O43613); experiment: Antagonist activity at human OX1R expressed in CHO cells assessed as inhibition of orexin A-induced intracellular Ca2+ release by FLIPR assay; assay type: functional, cell-based
T2 sequence (O43613 whole entry): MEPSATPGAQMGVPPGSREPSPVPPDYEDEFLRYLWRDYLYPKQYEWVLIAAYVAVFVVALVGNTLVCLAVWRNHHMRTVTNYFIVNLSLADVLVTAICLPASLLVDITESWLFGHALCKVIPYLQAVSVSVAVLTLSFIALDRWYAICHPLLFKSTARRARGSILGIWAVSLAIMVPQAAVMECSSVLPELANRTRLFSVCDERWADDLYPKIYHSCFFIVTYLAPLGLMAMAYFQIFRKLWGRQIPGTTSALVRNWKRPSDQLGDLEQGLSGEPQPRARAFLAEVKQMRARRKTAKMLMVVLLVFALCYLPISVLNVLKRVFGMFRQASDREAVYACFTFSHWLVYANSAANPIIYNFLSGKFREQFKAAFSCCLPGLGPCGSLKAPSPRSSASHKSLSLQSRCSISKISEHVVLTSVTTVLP

| Structure (SMILES) | IC50 (Orexin receptor type 2) [nM] | IC50 [1] [nM] |
| --- | --- | --- |
| CCOc1ccccc1C(=O)N1C[C@H](c2nc(C(C)(C)O)c(C)o2)CC[C@H]1C | 12 | – |
| CC[C@](C)(O)c1nc([C@@H]2CC[C@@H](C)N(C(=O)c3cscc3-n3nccn3)C2)oc1C | 18 | 9770 |
| C[C@@H]1CC[C@@H](c2nc(CN(C)C)c(-c3ccccc3)o2)CN1C(=O)c1ccccc1-n1nccn1 | 983 | – |
